{
  "source": "ChEMBL document CHEMBL1799909",
  "about": "“Lithothamnin A, the first bastadin-like metabolite from the red alga Lithothamnion fragilissimum” (J Nat Prod, 2011)",
  "assay_type_in_all_cases": "functional, cell-based",
  "key": {"[1]": {"test_system": "MOLT-4", "assay": "Cytotoxicity against human MOLT4 cells after 2 days by XTT assay", "settings": "MOLT-4, 48 h"}, "[2]": {"assay": "Cytotoxicity against human LOX cells after 2 days by XTT assay", "settings": "48 h"}, "[3]": {"test_system": "SNB-19", "assay": "Cytotoxicity against human SNB19 cells after 2 days by XTT assay", "settings": "SNB-19, 48 h"}, "[4]": {"test_system": "OVCAR-3", "assay": "Cytotoxicity against human OVCAR3 cells after 2 days by XTT assay", "settings": "OVCAR-3, 48 h"}, "[5]": {"test_system": "COLO 205", "assay": "Cytotoxicity against human COLO205 cells after 2 days by XTT assay", "settings": "COLO 205, 48 h"}},
  "data": [
    {"smiles": "O=C1NCCc2cc(Br)c(O)c(c2)Oc2cc(O)c(cc2Br)CCNC(=O)/C(=N/O)Cc2c(O)cc(Br)c(c2Br)Oc2cc(cc(Br)c2O)C/C1=N\\O", "note": "[LITHOTHAMNIN A]", "values": [
      {"measurement": "IC50", "setting": "[1]", "value": 19, "unit": "µM"},
      {"measurement": "IC50", "setting": "[2]", "value": 9.5, "unit": "µM"},
      {"measurement": "IC50", "setting": "[3]", "value": 7.6, "unit": "µM"},
      {"measurement": "IC50", "setting": "[4]", "value": 7.6, "unit": "µM"},
      {"measurement": "IC50", "setting": "[5]", "value": 19, "unit": "µM"}
    ]}
  ]
}
